By EC50 is commonly meant the concentration needed to bring the measured effect to its halfway point. As a reminder, the CC50 is the concentration giving 50% cytotoxicity. The logP is a log measure of how a compound divides between an organic and an aqueous phase. High values mean higher lipophilicity, low ones lower lipophilicity.

Molecules are shown by their SMILES.

The record followed here is ChEMBL document CHEMBL2321848, “Optimization of benzyloxazoles as non-nucleoside inhibitors of HIV-1 reverse transcriptase to enhance Y181C potency” (Bioorg Med Chem Lett, 2013).

Data set [1] relates to Human immunodeficiency virus 1. As to the kind of experiment: Antiviral activity against multidrug resistant HIV1 IIIB containing reverse transcriptase K103N and Y181C mutation infected in human MT2 cells assessed as cytoprotection from infection by MTT colorimetric method. It counts as functional, organism-based. For orientation: Tetrazolium assays rely on reduction of a dye to a coloured formazan, in cell work by metabolically active cells.

Data set [2] deals with Human immunodeficiency virus 1. Nature of the data set: microbe, parasite or virus in culture. Particulars: Human immunodeficiency virus 1, IIIB, MT2; call rule not given here.
A further data set deals with MT2. As to the kind of experiment: (§1) Cytotoxicity in human MT2 cells assessed as inhibition of cell growth. In kind it is cell-based. To be noted: mt2.
In data set [3] the test system is Human immunodeficiency virus 1. Nature of the data set: Antiviral activity against multidrug resistant HIV1 IIIB containing reverse transcriptase Y181C mutation infected in human MT2 cells assessed as cytoprotection from infection by MTT colorimetric method. It counts as functional, organism-based.
Data set [4] can be described thus: Octanol-water partition coefficient, log P of the compound. In kind it is physicochemical.
Data set [5] is described as follows: as §1. To be noted: MT2 cells. It counts as cell-based.
The mark [6] stands for this setting: Human immunodeficiency virus 1, IIIB, MT2, read-out: EC50.

As for `CCc1cc(F)c(Cc2cnc(Nc3ccc(Oc4cccnc4)c(Cl)c3)o2)c(F)c1`, the EC50 was 800 nM in data set [1] (setting [6]), 5 nM in data set [2] and 60 nM in data set [3] (setting [6]). Moreover, the CC50 with MT2 turned out to be 5000 nM.

For `N#Cc1ccc(Nc2ncc(Cc3c(F)cccc3F)o2)cc1`, the EC50 entry in data set [1] (mt2) is given as “Not Active”.

With `N#Cc1ccc(Nc2ncc(Cc3c(F)cc(CC4CC4)cc3F)o2)cc1Cl`, the EC50 in data set [1] (setting [6]) was found to be 15000 nM; in data set [2], 68 nM; in data set [3] (setting [6]), 1200 nM. Moreover, the CC50 with MT2 was found to be 29000 nM.

`CC(C)c1cc(F)c(Cc2cnc(Nc3ccc(C#N)c(Cl)c3)o2)c(F)c1`: the EC50 was 120 nM in data set [1] (setting [6]), 5.2 nM in data set [2] and 7.2 nM in data set [3] (setting [6]). In data set [4], this compound yielded a logP of 3.7. Besides, in the data set with MT2, the CC50 stood at 5000 nM.

Consider `CCOc1cc(F)c(Cc2cnc(Nc3ccc(C#N)c(Cl)c3)o2)c(F)c1`, for which the EC50 in data set [1] (setting [6]) turned out to be 750 nM; in data set [2] it was 28 nM; in data set [3] (setting [6]), 48 nM. In the data set on MT2, the CC50 was determined as 15000 nM.

Consider `COCc1cc(F)c(Cc2cnc(Nc3ccc(C#N)c(Cl)c3)o2)c(F)c1`, for which the EC50 in data set [1] (setting [6]) turned out to be 6300 nM; in data set [2] it was 3.6 nM; in data set [3] (setting [6]), 690 nM. In the data set with MT2, the CC50 is 15000 nM.

`Cc1cc(F)c(Cc2cnc(Nc3ccc(C#N)c(Cl)c3)o2)c(F)c1`: the figures for the EC50 in data set [1] (setting [6]), in data set [2] and in data set [3] (setting [6]) were 7200 nM, 11 nM and 210 nM, respectively. For the same compound, the CC50 in the data set on MT2 turned out to be 31000 nM.

`N#Cc1ccc(Nc2ncc(Cc3c(F)cc(C4CC4)cc3F)o2)cc1Cl`: the values for the EC50 in data set [1] (setting [6]), in data set [2] and in data set [3] (setting [6]) were 10700 nM, 24 nM and 1500 nM, respectively. In data set [4], the logP stood at 3.3. Moreover, the CC50 in the data set on MT2 is 65000 nM.

`CCC(C)c1cc(F)c(Cc2cnc(Nc3ccc(C#N)c(Cl)c3)o2)c(F)c1` (racemic): the EC50 in data set [1] (setting [6]) was 2800 nM; in data set [2], 120 nM; in data set [3] (setting [6]) it was 150 nM. For the same compound, the CC50 in the data set on MT2 turned out to be 40000 nM.

In the case of `CC(C)(C)c1cc(Cl)c(Cc2cnc(Nc3ccc(C#N)c(Cl)c3)o2)c(Cl)c1`, the EC50 entry in data set [1] (mt2) is “Not Active”; in data set [2], 1300 nM; in data set [3] (mt2) it was “Not Active”. In the data set with MT2, the CC50 was found to be 6000 nM.

As for `CCc1cc(F)c(Cc2cnc(Nc3ccc(C#N)c(Cl)c3)o2)c(F)c1`, the EC50 in data set [1] (setting [6]) is 210 nM; in data set [2], 1.3 nM; in data set [3] (setting [6]), 6.9 nM. Moreover, in the data set on MT2, the CC50 was 10000 nM.

As for `Cc1ccnc2c1NC(=O)c1cccnc1N2C1CC1` [NEVIRAPINE], the EC50 result in data set [1] (mt2) and in data set [3] (mt2) was “Not Active” each time. Besides, the CC50 in data set [5] is greater than 100000 nM.

Take `N#Cc1ccc(Nc2ncc(Cc3c(F)cc(F)cc3F)o2)cc1Cl`: the EC50 result in data set [1] (mt2) is “Not Active”; in data set [2] it was 9.1 nM; in data set [3] (setting [6]) it was 910 nM. In addition, the CC50 in the data set with MT2 is 7000 nM.
